Measurements: patent US12162878B2 (HINOVA PHARMACEUTICALS INC., priority 2018, dated 2024)
“And” between values parts separate entries of the source, which are not always exact repeats. Equal values may be shown once.

Columns and labels:
BRD2(1,2) = BRD2(1,2) (Homo sapiens (Human), UniProt P25440); assay: AlphaScreen binding of compounds on BRD2 (D1+D2); conditions: read-out: IC50 against BRD2(1,2)
Excerpt: (§1) Homogeneous time-resolved fluorescence technology (HTRF) was used to determine the binding effect of compounds on BRD4 (D1+D2) and BRDT (D1) proteins, as well as AlphaScreen method was used to detect the binding effect of compounds on BRD2 (D1+D2) and BRD3 (D1+D2) proteins.
(§2) The compounds were screened in vitro, and each compound was serially diluted to 10 concentrations. Four proteins BRD4 (D1+D2), BRDT (D1), BRD2 (D1+D2) and BRD3 (D1+D2) were chosen to determine the IC50 values of compounds (see Table 1).
(§3) 4. Compound treatment: The test compound was dissolved in dimethyl sulfoxide (DMSO), and the storage concentration was 10 mM.
(§4) 6. AlphaScreen Detection Procedures:
(§5) 1) Preparing One-Fold Concentration of Detection Buffer
(§6) One-fold concentration of detection buffer was prepared (Improved HEPES buffer)
(§7) 2) Gradient Dilution of Compounds
(§8) Echo automatic sampler was used to transfer the compound to the detection plate for gradient dilution, so that the final concentration of dimethyl sulfoxide was 0.1%.
(§9) 3) Preparation of Protein Solution
(§10) The protein was dissolved in one-fold concentration of detection buffer.
(§11) 4) Preparation of Substrate Solution
(§12) The peptide was dissolved in one-fold concentration of detection buffer to prepare the substrate solution.
(§13) 5) 5 μL protein solution was transferred to the detection plate, and one-fold concentration of detection buffer (5 μL) was placed in the negative control wells.
(§14) 6) The plate was incubated for 15 min at room temperature.
(§15) 7) 5 μL substrate solution was added to each well to start the reaction.
(§16) 8) The plate was incubated for additional 60 min at room temperature.
(§17) 9) Preparation of acceptor solution and donor solution in one-fold concentration of assay buffer Acceptor solution (15 μL) and donor solution (15 μL) were respectively added, and then incubated at room temperature for 60 min and protected against exposure to light.
(§18) 10) The endpoint was read in EnSpire and Alpha mode.
(§19) The experimental data were recorded in an Excel file and equation (1) was used to get the inhibition rate. Inh%=(Max−Signal)/(Max−Min)*100 Equation (1):
(§20) The obtained data were input into GraphPad software, and equation (2) was used to obtain the IC50 value. Y=Bottom+(Top−Bottom)/(1+10^((Log IC50−X)*Hill Slope)) Formula (2): […]
(§21) Wherein, Y axis was the inhibition rate, and the X axis was the compound concentration.

BRD4(1,2) = BRD4(1,2) (Homo sapiens (Human), UniProt O60885); assay: HTRF binding of compounds on BRD4 (D1+D2); conditions: read-out: IC50 against BRD4(1,2)
Excerpt: as §1, §2, §3
(§22) 5. Steps for Homogeneous Time-Resolved Fluorescence Detection:
(§23) 1) According to the arrangement of the detection plate, all compounds were diluted in Echo plate.
(§24) The final dilution concentration of DMSO is 0.1%.
(§25) 2) The compound or DMSO was transferred to a 384-well detection plate with the Echo automatic sampler.
(§26) 3) Two-fold concentration of the mixture of protein and peptide was added to the detection plate.
(§27) 4) Two-fold concentration of mixed detection solution was added to the test plate, and shaken for 30 s.
(§28) 5) Incubating for 2 h at room temperature.
(§29) 6) Fluorescence signal was read on Envision multi-function microplate reader (excitation light wavelength being 340 nm, and emission light wavelength being 615 nm and 665 nm).
(§30) The experimental data were recorded in an Excel file, and equation (1) was used to obtain the inhibition rate. Inh%=(Max−Signal)/(Max−Min)*100 Equation (1):
(§31) The obtained data was recorded in GraphPad software, and equation (2) was used to provide the IC50 values. Y=Bottom+(Top−Bottom)/(1+10^((Log IC50−X)*Hill Slope)) Equation (2): […]
(§32) Y axis was the inhibition rate, and X axis was the compound concentration.

BRD3(1,2) = BRD3(1,2) (Homo sapiens (Human), UniProt Q15059); assay: AlphaScreen binding of compounds on BRD3 (D1+D2); conditions: read-out: IC50 against BRD3(1,2)
Excerpt: as §1, §2, §3, §4, §5, §6, §7, §8, §9, §10, §11, §12, §13, §14, §15, §16, §17, §18, §19, §20, §21

BRDT(D1) = BRDT(D1) (Homo sapiens (Human), UniProt Q58F21); assay: HTRF binding of compounds on BRDT (D1); conditions: read-out: IC50 against BRDT(D1)
Excerpt: as §1, §2, §3, §22, §23, §24, §25, §26, §27, §28, §29, §30, §31, §32

CWR22RV1 cells = assay: Inhibition of proliferation of CWR22RV1 cells (CCK-8); assay type: cell-based, human; conditions: Homo sapiens, CWR22Rv1, 144 h, 6 days
Method in brief: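 Cells seeded at 1500/well, cultured overnight, then exposed to compounds in 3-fold dilutions (9 concentrations from 10 μM top final, 0.1% DMSO) for 6 days at 37 °C. Viability read by CCK-8 absorbance at 450 nm after 2.5 h; IC50 from dose-response inhibition fit.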

Chain of BRD3(1,2) (Q15059 29-417): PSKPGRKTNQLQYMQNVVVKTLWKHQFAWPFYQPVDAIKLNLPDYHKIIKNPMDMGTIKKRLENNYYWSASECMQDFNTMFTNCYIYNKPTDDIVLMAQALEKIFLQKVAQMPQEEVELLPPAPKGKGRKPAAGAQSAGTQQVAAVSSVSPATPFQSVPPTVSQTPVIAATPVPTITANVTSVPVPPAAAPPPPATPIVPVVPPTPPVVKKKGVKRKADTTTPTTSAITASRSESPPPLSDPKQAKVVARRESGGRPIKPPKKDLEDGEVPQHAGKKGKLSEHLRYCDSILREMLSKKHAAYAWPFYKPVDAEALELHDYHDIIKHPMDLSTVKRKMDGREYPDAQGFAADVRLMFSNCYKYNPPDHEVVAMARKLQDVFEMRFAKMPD
Chain of BRD2(1,2) (P25440 65-459): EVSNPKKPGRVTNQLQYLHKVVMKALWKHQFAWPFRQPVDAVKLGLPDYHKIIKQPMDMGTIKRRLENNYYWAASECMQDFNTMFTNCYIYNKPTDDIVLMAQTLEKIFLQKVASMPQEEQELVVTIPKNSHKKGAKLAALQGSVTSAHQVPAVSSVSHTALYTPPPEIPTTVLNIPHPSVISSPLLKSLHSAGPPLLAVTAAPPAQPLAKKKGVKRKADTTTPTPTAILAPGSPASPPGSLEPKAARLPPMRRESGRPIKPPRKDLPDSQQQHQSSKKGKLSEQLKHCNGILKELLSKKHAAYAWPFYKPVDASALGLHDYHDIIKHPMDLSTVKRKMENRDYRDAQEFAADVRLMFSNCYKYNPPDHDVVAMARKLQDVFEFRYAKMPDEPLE

IC50 (BRD2(1,2))	IC50 (BRD4(1,2))	IC50 (BRD3(1,2))	IC50 (BRDT(D1))	SMILES	IC50 (CWR22RV1 cells)
1.7 nM	4.3 nM	4.6 nM	13 nM	[2H]C([2H])([2H])n1cc(-c2cc(S(=O)(=O)NC)cnc2N2CCC3(CC2)CC3(F)F)c2cc[nH]c2c1=O [Compound 212, 6-(1,1-difluoro-6-aza-spiro[2.5]octan-6-yl)-N-methyl-5-(6-trideuteromethyl-7-oxo-6,7-dihydro-1H-pyrrolo[2,3-c]pyridin-4-yl)pyridin-3-sulfonamide]	
1.6 nM	4.1 nM	4.4 nM	15 nM	[2H]C([2H])([2H])NS(=O)(=O)c1cnc(N2CCC3(CC2)CC3(F)F)c(-c2cn(C([2H])([2H])[2H])c(=O)c3[nH]ccc23)c1 [Compound 213, 6-(1,1-difluoro-6-aza-spiro[2.5]octan-6-yl)-N-trideuteromethyl-5-(6-trideuteromethyl-7-oxo-6,7-dihydro-1H-pyrrolo[2,3-c]pyridin-4-yl) pyridin-3-sulfonamide]	
2.9 nM	5.3 nM	5 nM	16 nM	[2H]C([2H])([2H])n1cc(-c2cc(S(=O)(=O)CC)cnc2N2CCC3(CC2)CC3(F)F)c2cc[nH]c2c1=O [Compound 215, 4-(2-(1,1-difluoro-6-aza-spiro[2.5]octan-6-yl)-5-(ethylsulfonyl)pyridin-3-yl)-6-trideuteromethyl-1H-pyrrolo[2,3-c]pyridin-7(6H)-one]	
1.4 nM and 1.5 nM	6.2 nM and 4.9 nM	4.9 nM and 4.5 nM	20 nM and 19 nM	[2H]C([2H])([2H])n1cc(-c2cc(S(N)(=O)=O)c(F)cc2N2CCC3(CC2)CC3(F)F)c2cc[nH]c2c1=O [Compound 217, 4-(1,1-difluoro-6-aza-spiro[2.5]octan-6-yl)-2-fluoro-5-(6-trideuteromethyl-7-oxo-6,7-dihydro-1H-pyrrolo[2,3-c]pyridin-4-yl)benzenesulfonamide]	
3 nM	14 nM	5.2 nM	18 nM	[2H]C([2H])([2H])n1cc(-c2cc(S(=O)(=O)C(C)(C)C(=O)O)ccc2N2CCC3(CC2)CC3(F)F)c2cc[nH]c2c1=O [Compound 239, 2-((4-(1,1-difluoro-6-aza-spiro[2.5]octan-6-yl)-3-(6-trideuteromethyl-7-oxo-6,7-dihydro-1H-pyrrolo[2,3-c]pyridin-4-yl)phenyl)sulfonyl)-2-methylpropionic acid]	7.8 nM
1.2 nM	6.4 nM	4.3 nM	21 nM	[2H]C([2H])([2H])n1cc(-c2cc(S(=O)(=O)N3CC[C@@H](O)C3)ccc2N2CCC3(CC2)CC3(F)F)c2cc[nH]c2c1=O [Compound 240, (R)-4-(2-(1,1-difluoro-6-aza-spiro[2.5]octan-6-yl)-5-((3-hydroxylpyrrolidin-1-yl)sulfonyl)phenyl)-6-trideuteromethyl-1H-pyrrolo[2,3-c]pyridin-7(6H)-one]	4.8 nM
1.2 nM	3.4 nM	3.9 nM	13 nM	[2H]C([2H])([2H])n1cc(-c2cc(S(N)(=O)=O)ccc2N2CCC3(CC2)CC3(F)F)c2cc[nH]c2c1=O [Compound 251, 4-(1,1-difluoro-6-aza-spiro[2.5]octan-6-yl)-3-(6-trideuteromethyl-7-oxo-6,7-dihydro-1H-pyrrolo[2,3-c]pyridin-4-yl)benzenesulfonamide]	
160 nM	680 nM	240 nM	830 nM	[2H]C([2H])([2H])n1cc(-c2cc(S(=O)(=O)N3C[C@H](O)C[C@H]3C(=O)O)ccc2N2CCC3(CC2)CC3(F)F)c2cc[nH]c2c1=O [Compound 252, (2S,4R)-1-((4-(1,1-difluoro-6-aza-spiro[2.5]octan-6-yl)-3-(6-trideuteromethyl-7-oxo-6,7-dihydro-1H-pyrrolo[2,3-c]pyridin-4-yl)phenyl)sulfonyl)-4-hydroxylpyrrolidin-2-carboxylic acid]	

Further lines, the compound ahead of its results:

SMILES	IC50 (BRD2(1,2))	IC50 (BRD4(1,2))	IC50 (BRD3(1,2))	IC50 (BRDT(D1))	IC50 (CWR22RV1 cells)
[2H]C([2H])([2H])n1cc(-c2cc(S(C)(=O)=O)ccc2N2CCC3(CC2)CC3)c2cc[nH]c2c1=O [Compound 56, 6-trideuteromethyl-4-(5(methylsulfonyl)-2-(6-aza-spiro[2.5]octan-6-yl)phenyl)-1H-pyrrolo[2,3-c]pyridin-7(6H)-one]	1.1 nM	7.1 nM	4.3 nM	21 nM	3 nM
CCS(=O)(=O)Nc1ccc(N2CCC3(CC2)CC3(F)F)c(-c2cn(C)c(=O)c3[nH]ccc23)c1 [Compound 193, N-(4-(1,1-difluoro-6-aza-spiro[2.5]octan-6-yl)-3-(6-methyl-7-oxo-6,7-dihydro-1H-pyrrolo[2,3-c]pyridin-4-yl)phenyl)ethanesulfonamide]	2.7 nM	14 nM	5.8 nM	32 nM	4 nM
[2H]C([2H])([2H])n1cc(-c2cc(S(=O)(=O)NC)ccc2N2CCC3(CC2)CC3)c2cc[nH]c2c1=O [Compound 202, N-methyl-3-(6-trideuteromethyl-7-oxo-6,7-dihydro-1H-pyrrolo [2,3-c]pyridin-4-yl)-4-(6-aza-spiro[2.5]octan-6-yl)benzenesulfonamide]	1.6 nM	5.1 nM	4.5 nM	16 nM	0.5 nM
[2H]C([2H])([2H])n1cc(-c2cc(S(=O)(=O)N(C)C)ccc2N2CCC3(CC2)CC3(F)F)c2cc[nH]c2c1=O [Compound 204, 4-(1,1-difluoro-6-aza-spiro[2.5]octan-6-yl)-N,N-dimethyl-3-(6-trideuteromethyl-7-oxo-6,7-dihydro-1H-pyrrolo[2,3-c]pyridin-4-yl)benzenesulfonamide]	6.5 nM	10 nM	7.4 nM	19 nM	0.7 nM
Cn1cc(-c2cc(NS(C)(=O)=O)ccc2N2CCC3(CC3)C2)c2cc[nH]c2c1=O [Compound 246, N-(3-(6-methyl-7-oxo-6,7-dihydro-1H-pyrrolo[2,3-c]pyridin-4-yl)-4-(5-aza-spiro[2.4]heptan-5-yl)phenyl)methanesulfonamide]					30 nM
Cn1cc(-c2cc(NC(=O)CCC(=O)O)ccc2N2CCC3(CC2)CC3)c2cc[nH]c2c1=O [Compound 247, 4-((3-(6-methyl-7-oxo-6,7-dihydro-1H-pyrrolo[2,3-c]pyridin-4-yl)-4-(6-aza-spiro[2.5]octan-6-yl)phenyl)amino)-4-oxobutyric acid]					670 nM
Cn1cc(-c2cc(S(C)(=O)=O)ccc2N2CCCC2C(=O)O)c2cc[nH]c2c1=O (stereo not shown) [Compound 248, 1-(2-(6-methyl-7-oxo-6,7-dihydro-1H-pyrrolo[2,3-c]pyridin-4-yl)-4-(methanesulfonyl)phenyl)pyrrolidin-2-carboxylic acid]					7000 nM
Cn1cc(-c2cc(S(C)(=O)=O)ccc2N2CCCC2CCl)c2cc[nH]c2c1=O (stereo not shown) [Compound 249, 4-(2-(2-(chloromethyl)pyrrolidin-1-yl)-5-(methanesulfonyl)phenyl)-6-methyl-1H-pyrrolo[2,3-c]pyridin-7(6H)-one]					130 nM
